Data: patent publication US11111214B2 (priority 2013, dated 2021)

What was measured:
[1] = in vitro; conditions: rat, hepatocytes
[2] = target: T1, recombinant human mu (MOR) opioid receptor (Homo sapiens, UniProt P35372); assay: biochemical; type: binding; conditions: for inhibition at 10 µM: read-out: Mu receptor % inhibition at single concentration, % inhibition @ 10 μM
T1 construct: expressed in transfected cells; host or cells: CHO-K1 cell membranes

[3] = not given; remark: listed apart in the source
[4] = in vitro; conditions: human, hepatocytes
[5] = target: T2, recombinant human kappa (KOR) opioid receptor (Homo sapiens, UniProt P41145); assay: biochemical; type: binding
T2 construct: expressed in transfected cells; host or cells: CHO-K1 cell membranes
T2 sequence (P41145 whole entry): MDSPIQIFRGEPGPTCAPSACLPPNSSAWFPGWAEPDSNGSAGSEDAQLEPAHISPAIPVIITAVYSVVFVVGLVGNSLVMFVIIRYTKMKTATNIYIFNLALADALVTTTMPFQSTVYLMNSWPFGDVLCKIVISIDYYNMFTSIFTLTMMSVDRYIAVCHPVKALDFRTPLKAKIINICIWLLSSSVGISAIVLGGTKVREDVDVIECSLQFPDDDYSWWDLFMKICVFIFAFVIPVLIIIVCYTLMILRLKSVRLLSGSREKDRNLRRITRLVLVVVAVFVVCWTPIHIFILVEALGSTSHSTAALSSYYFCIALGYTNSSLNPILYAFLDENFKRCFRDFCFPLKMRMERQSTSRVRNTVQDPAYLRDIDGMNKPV

[6] = target: T3, KOR (kappa opioid receptor) (Homo sapiens, UniProt P41145); assay: cell-based
T3 construct: expressed in transfected cells; host or cells: CHO-K1 cells stably expressing KOR
T3 sequence (P41145 whole entry): as above

T1 sequence (P35372 whole entry): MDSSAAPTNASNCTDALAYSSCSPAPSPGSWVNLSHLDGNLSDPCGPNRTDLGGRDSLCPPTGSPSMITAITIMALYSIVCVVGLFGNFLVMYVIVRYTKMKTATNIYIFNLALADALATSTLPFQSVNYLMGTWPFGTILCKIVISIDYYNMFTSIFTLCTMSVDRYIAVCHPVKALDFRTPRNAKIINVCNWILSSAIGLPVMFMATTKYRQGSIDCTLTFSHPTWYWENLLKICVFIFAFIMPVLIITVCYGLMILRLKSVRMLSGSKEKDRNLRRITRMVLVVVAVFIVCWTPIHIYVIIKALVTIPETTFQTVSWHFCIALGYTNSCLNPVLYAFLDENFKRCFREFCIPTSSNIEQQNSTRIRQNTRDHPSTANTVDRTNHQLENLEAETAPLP

| Compound | CLhep predicted [1] [mL/min/kg] | In vitro Hepatocyte Clearance, Rat % hep Blood flow [%] | IC50 [2] [nM] | inhibition at 10 µM [2] [%] | In vitro Hepatocyte Clearance, Human % hep Blood flow [3] [%] | CLhep predicted [4] [mL/min/kg] | IC50 [5] [nM] | Ki [5] [nM] | EC50 [6] [nM] |
| --- | --- | --- | --- | --- | --- | --- | --- | --- | --- |
| COCCOCCOCCOCCOCCNC(=O)O[C@H]1CCN(C[C@H](c2ccccc2)N(C)C(=O)Cc2ccc(Cl)c(Cl)c2)C1.Cl [compound 6, (3S)-1-[(2S)-2-{[(3,4-Dichlorophenyl)acetyl](methyl)amino}-2-phenylethyl]pyrrolidin-3-yl 2,5,8,11,14-pentaoxahexadecan-16-ylcarbamate] | 48.8 | 81 | 31200 | 20.6 | 86 | 20.1 | 1100 | 255 | 56 |
| COCCOCCOCCNC(=O)O[C@H]1CCN(C[C@H](c2ccccc2)N(C)C(=O)Cc2ccc(Cl)c(Cl)c2)C1.Cl [compound 5, (3S)-1-[(2S)-2-{[(3,4-Dichlorophenyl)acetyl](methyl)amino}-2-phenylethyl]pyrrolidin-3-yl {2-[2-(2-methoxyethoxy)ethoxy]ethyl}carbamate] | 49.1 | 82 |  | 35.6 | 88 | 20.4 | 1190 | 275 | 75.7 |
